Data taken from ChEMBL document CHEMBL1134021, “Thienopyridines: nitric oxide synthase inhibitors with potent in vivo activity” (Bioorg Med Chem Lett, 2001).

How the values were obtained:
Rattus norvegicus [1] = assay: In vivo inhibition of iNOS is determined from the inhibition of LPS-induced nitrite production measured in rat blood plasma at 800 umol/kg for 15 min; assay type: functional; settings: 0.25 h
Rattus norvegicus [2] = assay: Dose required for half maximal increase in mean arterial blood pressure of 40 mmHg after 15 min in anaesthetised rats, as a measure of eNOS activity; assay type: functional
DLD-1 = assay: Concentration required to inhibit nitric oxide synthesis in DLD-1 cells; assay type: functional, cell-based; settings: Homo sapiens
Nitric oxide synthase 1 = Nitric oxide synthase 1 (Rattus norvegicus, UniProt P29476); assay: Ability to inhibit the conversion of [3H]-L-Arg to [3H]L-citrulline catalyzed by n-NOS from rat cerebellum; assay type: functional, tissue-based
Sequence of Nitric oxide synthase 1 (P29476 whole entry): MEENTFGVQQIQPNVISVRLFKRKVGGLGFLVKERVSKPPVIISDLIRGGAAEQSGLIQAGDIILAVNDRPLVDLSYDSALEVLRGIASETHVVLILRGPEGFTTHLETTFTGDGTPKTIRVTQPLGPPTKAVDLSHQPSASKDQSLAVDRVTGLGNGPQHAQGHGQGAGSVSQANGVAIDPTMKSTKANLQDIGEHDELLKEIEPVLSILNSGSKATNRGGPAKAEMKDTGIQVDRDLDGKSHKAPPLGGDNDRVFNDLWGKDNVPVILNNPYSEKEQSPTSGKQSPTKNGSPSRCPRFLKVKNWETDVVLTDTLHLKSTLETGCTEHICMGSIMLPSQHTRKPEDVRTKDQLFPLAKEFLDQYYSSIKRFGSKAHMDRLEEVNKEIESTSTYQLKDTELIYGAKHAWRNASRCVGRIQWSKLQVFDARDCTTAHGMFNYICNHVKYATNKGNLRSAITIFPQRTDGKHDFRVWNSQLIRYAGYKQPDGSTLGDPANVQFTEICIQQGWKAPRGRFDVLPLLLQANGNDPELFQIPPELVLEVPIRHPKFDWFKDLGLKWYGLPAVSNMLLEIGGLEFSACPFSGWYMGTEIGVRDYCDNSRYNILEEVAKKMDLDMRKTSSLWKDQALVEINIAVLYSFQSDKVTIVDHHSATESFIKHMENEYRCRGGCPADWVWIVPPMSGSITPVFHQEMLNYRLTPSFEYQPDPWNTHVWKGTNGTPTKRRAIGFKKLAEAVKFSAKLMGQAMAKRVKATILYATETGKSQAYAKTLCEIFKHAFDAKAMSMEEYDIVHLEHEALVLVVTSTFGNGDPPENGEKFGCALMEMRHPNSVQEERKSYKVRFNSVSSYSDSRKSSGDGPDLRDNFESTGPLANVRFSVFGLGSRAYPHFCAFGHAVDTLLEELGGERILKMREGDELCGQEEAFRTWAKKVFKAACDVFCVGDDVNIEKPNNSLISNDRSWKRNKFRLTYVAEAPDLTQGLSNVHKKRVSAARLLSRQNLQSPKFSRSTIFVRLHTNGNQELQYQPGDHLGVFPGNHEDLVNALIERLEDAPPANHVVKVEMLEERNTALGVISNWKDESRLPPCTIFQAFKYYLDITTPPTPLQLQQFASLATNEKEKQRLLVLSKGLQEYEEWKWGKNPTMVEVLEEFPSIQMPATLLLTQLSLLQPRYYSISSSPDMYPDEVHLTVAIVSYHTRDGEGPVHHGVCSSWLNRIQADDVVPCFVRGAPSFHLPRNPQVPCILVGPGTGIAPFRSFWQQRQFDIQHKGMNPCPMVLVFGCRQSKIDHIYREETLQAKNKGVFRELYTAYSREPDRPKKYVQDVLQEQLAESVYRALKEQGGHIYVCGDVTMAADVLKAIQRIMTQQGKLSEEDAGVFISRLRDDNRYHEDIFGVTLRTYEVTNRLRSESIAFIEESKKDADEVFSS

HUVEC = assay: Ability to inhibit the conversion of [3H]L-Arg to [3H]L-citrulline catalyzed by e-NOS from HUVEC cells at 100 uM concentration; assay type: functional; settings: Homo sapiens
[3] = target: Nitric oxide synthase, inducible (Homo sapiens, UniProt P35228); assay: Ability to inhibit the conversion of [3H]L-Arg to [3H]L-citrulline catalyzed by i-NOS from human DLD-1 cells; assay type: functional, cell-based
Sequence of Nitric oxide synthase, inducible (P35228 whole entry): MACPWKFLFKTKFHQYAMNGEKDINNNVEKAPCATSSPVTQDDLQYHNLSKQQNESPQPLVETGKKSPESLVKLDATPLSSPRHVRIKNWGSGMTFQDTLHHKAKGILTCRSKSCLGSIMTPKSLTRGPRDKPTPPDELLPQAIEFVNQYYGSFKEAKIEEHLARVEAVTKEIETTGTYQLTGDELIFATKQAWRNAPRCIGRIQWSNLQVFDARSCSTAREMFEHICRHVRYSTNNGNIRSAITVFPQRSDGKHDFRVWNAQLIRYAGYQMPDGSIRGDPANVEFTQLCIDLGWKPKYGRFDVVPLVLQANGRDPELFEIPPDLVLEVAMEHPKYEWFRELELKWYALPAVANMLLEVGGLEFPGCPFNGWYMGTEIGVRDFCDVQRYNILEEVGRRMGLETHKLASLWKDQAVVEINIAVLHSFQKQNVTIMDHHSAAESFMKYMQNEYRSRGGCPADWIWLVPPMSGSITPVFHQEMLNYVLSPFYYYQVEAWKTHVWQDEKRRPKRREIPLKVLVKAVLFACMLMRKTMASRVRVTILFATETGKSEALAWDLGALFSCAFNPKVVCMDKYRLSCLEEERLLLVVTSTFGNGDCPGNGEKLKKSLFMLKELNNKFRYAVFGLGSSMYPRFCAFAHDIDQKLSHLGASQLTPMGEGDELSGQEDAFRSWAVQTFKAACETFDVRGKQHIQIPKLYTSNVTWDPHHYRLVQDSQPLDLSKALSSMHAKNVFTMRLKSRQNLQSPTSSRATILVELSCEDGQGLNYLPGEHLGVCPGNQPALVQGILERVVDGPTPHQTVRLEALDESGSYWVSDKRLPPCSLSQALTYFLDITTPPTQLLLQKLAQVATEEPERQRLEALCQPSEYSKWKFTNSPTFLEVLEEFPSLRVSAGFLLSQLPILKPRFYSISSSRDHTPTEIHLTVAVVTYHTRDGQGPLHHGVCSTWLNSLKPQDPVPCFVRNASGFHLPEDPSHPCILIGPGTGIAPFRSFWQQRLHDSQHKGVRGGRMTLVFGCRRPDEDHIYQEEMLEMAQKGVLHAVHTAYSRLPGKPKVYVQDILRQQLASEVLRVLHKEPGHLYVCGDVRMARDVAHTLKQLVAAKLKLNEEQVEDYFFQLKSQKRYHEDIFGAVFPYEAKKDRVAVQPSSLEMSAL

Nitric oxide synthase 3 = target: T1, Nitric oxide synthase 3 (Homo sapiens, UniProt P29474); assay: Ability to inhibit the conversion of [3H]L-Arg to [3H]L-citrulline catalyzed by e-NOS from HUVEC cells; assay type: functional, cell-based
T1 sequence (P29474 whole entry): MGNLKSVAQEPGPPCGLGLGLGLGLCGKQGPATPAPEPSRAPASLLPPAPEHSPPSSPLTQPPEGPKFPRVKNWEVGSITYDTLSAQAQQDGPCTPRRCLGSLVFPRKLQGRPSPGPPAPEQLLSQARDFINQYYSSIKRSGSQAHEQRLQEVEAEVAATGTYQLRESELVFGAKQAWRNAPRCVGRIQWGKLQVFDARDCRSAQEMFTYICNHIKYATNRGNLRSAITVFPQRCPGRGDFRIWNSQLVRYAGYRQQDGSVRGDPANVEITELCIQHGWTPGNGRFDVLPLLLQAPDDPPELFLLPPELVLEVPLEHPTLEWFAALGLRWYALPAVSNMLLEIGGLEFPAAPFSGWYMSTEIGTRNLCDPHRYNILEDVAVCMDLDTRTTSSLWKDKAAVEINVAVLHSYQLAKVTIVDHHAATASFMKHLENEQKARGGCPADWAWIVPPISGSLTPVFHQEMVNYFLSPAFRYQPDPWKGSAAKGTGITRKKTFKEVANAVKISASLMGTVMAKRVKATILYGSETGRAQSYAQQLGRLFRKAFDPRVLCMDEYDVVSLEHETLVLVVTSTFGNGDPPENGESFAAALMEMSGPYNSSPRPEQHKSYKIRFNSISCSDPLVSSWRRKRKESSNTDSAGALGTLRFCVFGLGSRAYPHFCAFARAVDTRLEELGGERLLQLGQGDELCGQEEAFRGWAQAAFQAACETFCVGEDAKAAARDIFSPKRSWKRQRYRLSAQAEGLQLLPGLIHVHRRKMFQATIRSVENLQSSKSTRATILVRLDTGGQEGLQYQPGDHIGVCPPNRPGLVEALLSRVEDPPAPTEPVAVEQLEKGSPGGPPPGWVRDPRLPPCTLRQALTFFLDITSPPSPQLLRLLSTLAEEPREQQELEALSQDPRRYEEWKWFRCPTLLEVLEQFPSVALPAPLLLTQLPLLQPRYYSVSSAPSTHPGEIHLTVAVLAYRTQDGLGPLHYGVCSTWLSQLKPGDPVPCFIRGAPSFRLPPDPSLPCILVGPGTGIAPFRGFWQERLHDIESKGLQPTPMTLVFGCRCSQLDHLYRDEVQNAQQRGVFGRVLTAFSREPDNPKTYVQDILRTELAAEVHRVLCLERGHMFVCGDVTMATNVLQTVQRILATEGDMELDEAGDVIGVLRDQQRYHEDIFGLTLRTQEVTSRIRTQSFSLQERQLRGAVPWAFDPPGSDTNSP

Rattus norvegicus [4] = assay: In vivo inhibition of iNOS is determined from the inhibition of LPS-induced nitrite production measured in rat blood plasma at 3.2 umol/kg for 15 min; assay type: functional; settings: 0.25 h

Work on `CNC(=N)NCCCC(N)C(=O)O` (single isomer, unassigned) [TILARGININE] yielded an ED50 (Rattus norvegicus [1]) of 100 µmol/kg, a Dose (Rattus norvegicus [2]) of 100 µM/kg and an IC50 (DLD-1) of 170000 nM.

`CC(C)(C)C#CC1Cc2ccsc2C(N)=N1` (stereo not given) gave an IC50 (Nitric oxide synthase 1) of 10000 nM, an inhibition at 100 µM (HUVEC) of less than 25% and an IC50 [3] of 3600 nM.

`CC#CC1Cc2ccsc2C(N)=N1` (stereo not given) was tested, and the IC50 (Nitric oxide synthase 1) was 80 nM, the IC50 (Nitric oxide synthase 3) was 5000 nM and the IC50 [3] was 150 nM. The IC50 (DLD-1) was 34000 nM.

With `C#CC1Cc2sccc2C(N)=N1` (stereo not given) the IC50 (Nitric oxide synthase 1) was 25 nM, the IC50 (Nitric oxide synthase 3) was 120 nM and the IC50 [3] was 110 nM. It also gave an IC50 (DLD-1) of 15000 nM.

Compound `NC1=NC(C#Cc2ccccc2)Cc2ccsc21` (stereo not given) has an IC50 (Nitric oxide synthase 1) of 4100 nM, an inhibition at 100 µM (HUVEC) of less than 25% and an IC50 [3] of 28000 nM.

Compound `NC1=NCCc2sccc21` has an IC50 (Nitric oxide synthase 1) of 100 nM and an IC50 [3] of 1600 nM.

In the case of `NC1=NC(c2ccccc2)Cc2sccc21` (stereo not given), the IC50 (Nitric oxide synthase 1) is reported as 740 nM, the IC50 (Nitric oxide synthase 3) is reported as 9500 nM and the IC50 [3] is reported as 2700 nM.

With `NC1=NCCc2ccsc21` the IC50 (Nitric oxide synthase 1) was 550 nM, the IC50 (Nitric oxide synthase 3) was 280 nM and the IC50 [3] was 730 nM.

Work on `NC1=NC(c2cccnc2)Cc2ccsc21` (stereo not given) yielded an IC50 (Nitric oxide synthase 1) of 260 nM and an IC50 [3] of 2800 nM.

`NC1=NC(C2CC2)Cc2ccsc21` (stereo not given) gave an IC50 (Nitric oxide synthase 1) of 11 nM, an IC50 (Nitric oxide synthase 3) of 50 nM and an IC50 [3] of 51 nM. For the same compound, the IC50 (DLD-1) was 3600 nM.

`NC1=NC(c2cccs2)Cc2ccsc21` (stereo not given) was tested, and the IC50 (Nitric oxide synthase 1) was 50 nM, the IC50 (Nitric oxide synthase 3) was 1900 nM and the IC50 [3] was 150 nM. It also gave an IC50 (DLD-1) of 9200 nM.

In the case of `C#CC1Cc2cc(C)sc2C(N)=N1` (stereo not given), the IC50 (Nitric oxide synthase 1) is reported as 910 nM, the IC50 (Nitric oxide synthase 3) is reported as 10000 nM and the IC50 [3] is reported as 3500 nM.

Compound `NC1=NC(c2ccco2)Cc2ccsc21` (stereo not given) has an IC50 (Nitric oxide synthase 1) of 40 nM, an ED50 (Rattus norvegicus [4]) of 0.4 µmol/kg and a Dose (Rattus norvegicus [2]) of 0.4 µM/kg. For the same compound, the IC50 (Nitric oxide synthase 3) was 920 nM, the IC50 [3] was 89 nM and the IC50 (DLD-1) was 2200 nM.

With `NC1=NC(C2CC2)Cc2sccc21` (stereo not given) the IC50 (Nitric oxide synthase 1) was 18 nM, the IC50 (Nitric oxide synthase 3) was 750 nM and the IC50 [3] was 190 nM. For the same compound, the IC50 (DLD-1) was 8700 nM.

With `NC1=NC(c2ccccc2)Cc2ccsc21` (stereo not given) the IC50 (Nitric oxide synthase 1) was 140 nM, the IC50 (Nitric oxide synthase 3) was 4000 nM and the IC50 [3] was 8300 nM.

Compound `C#CC1Cc2ccsc2C(N)=N1` (stereo not given) has an IC50 (Nitric oxide synthase 1) of 6 nM, an IC50 (Nitric oxide synthase 3) of 80 nM and an IC50 [3] of 40 nM. For the same compound, the IC50 (DLD-1) was 5800 nM.
